Patent publication US20170209385A1, “ETHYLCELLULOSE DISPERSION AND FILM” (Dow Global Technologies LLC, priority 2014, published 2017)
Structures can show the parent of a compound that is named as a salt. Where two headings read alike, the source gives them in different places.

How the values were obtained:
[1] = Screening: visual/manual check whether a coalesced film formed; format: physicochemical
[2] = 25° C.; cited from earlier work
[3] = unitless; cited from earlier work
[4] = ethylcellulose dispersion plus additive, intact on and after removal from substrate

| Film? Did the sample form a coalesced film? (yes or no) [1, 4] | SMILES | Film? Did the sample form a coalesced film? (yes or no) [1] | W. Sol. solubility in water [2] | logP logarithm of the water-octanol partition coefficient [3] |
| --- | --- | --- | --- | --- |
| yes | CCCCC/C=C\C/C=C\CCCCCCCC(=O)O [linoleic acid] | – | – | – |
| – | COC(=O)c1ccccc1C(=O)OC [dimethyl phthalate] | yes | – | – |
| yes | OCc1ccccc1 [benzyl alcohol] | – | 42.9 mg/mL | – |
| yes | CCCCCCCC/C=C\CCCCCCCCO [oleyl alcohol] | – | – | 7.562 |
| yes | CC(O)CO (stereo not drawn) [propylene glycol] | – | – | −1.008 |
| no | OC[C@@H](O)[C@@H](O)[C@H](O)[C@H](O)CO [mannitol] | – | 182 mg/mL | −3.62 |
| no | OC[C@@H](O)[C@@H](O)[C@H](O)[C@@H](O)CO [sorbitol] | – | 182 mg/mL | −3.262 |
| yes | CCCCOC(=O)CC(O)(CC(=O)OCCCC)C(=O)OCCCC [tributyl citrate] | – | – | 4.324 |
| yes | CC(=O)OCC(COC(C)=O)OC(C)=O [triacetin] | – | 1.16 mg/mL | 0.216 |
| no | OCC(O)CO [glycerol] | – | 500 mg/mL | −1.85 |
| no | OC[C@@H](O)[C@@H](O[C@H]1O[C@H](CO)[C@@H](O)[C@H](O)[C@H]1O)[C@H](O)[C@@H](O)CO [maltitol] | – | – | – |
| yes | CCCCOC(=O)CCCCCCCCC(=O)OCCCC [dibutyl sebacate] | – | – | 5.958 |
| yes | O=C(OCc1ccccc1)c1ccccc1 [benzyl benzoate] | – | – | 3.81 |
| no | O=C(O)CCC(=O)O [succinic acid] | – | – | −0.933 |
| – | OCCOc1ccccc1 [2-phenoxy ethanol, 2-Phenoxyethanol] | yes | 30 mg/mL | – |
| no | CC[N+](CC)(CC(=O)Nc1c(C)cccc1C)Cc1ccccc1 [denatonium benzoate] | – | – | −0.088 |
| no | OCCNCCO [diethanolamine] | – | – | −1.761 |
| yes | CCCCCCCCCCCCCCCCCC(=O)O [stearic acid] | – | – | – |
| yes | CCCOC(=O)c1cc(O)c(O)c(O)c1 [propyl gallate] | – | – | 1.779 |
| yes | CCCCCCCC/C=C\CCCCCCCC(=O)O [oleic acid] | – | – | – |
| – | CC(C)(C)CC(C)(C)c1ccc(OCCOCC[N+](C)(C)Cc2ccccc2)cc1 [benzethonium chloride] | no | – | – |
| yes | OCCc1ccccc1 [phenylethyl alcohol] | – | 20 mg/mL | – |
| yes | CCOC(=O)CC(O)(CC(=O)OCC)C(=O)OCC [triethyl citrate] | – | – | 1.267 |
| no | OC[C@@H](O)[C@H](O)[C@@H](O)CO [xylitol] | – | 1500 mg/mL | −2.65 |

| SMILES | Film? Did the sample form a coalesced film? (yes or no) [1, 4] | Film? Did the sample form a coalesced film? (yes or no) [1] | W. Sol. solubility in water [2] | logP logarithm of the water-octanol partition coefficient [3] |
| --- | --- | --- | --- | --- |
| CCOC(=O)c1ccccc1C(=O)OCC [diethyl phthalate] | yes | – | – | – |
